From patent publication US8088791B2, “Antibacterial agents” (Biots Scientific Management Pty Ltd, priority 2006, dated 2012)
Values after ≈ are worked out from the molar mass of the structure shown.

How the values were obtained:
[1] = system: Staphylococcus aureus ATCC29213; assay: Minimum Inhibitory Concentration (MIC) testing, broth microdilution, Staphylococcus aureus; type: cell-based; details: Staphylococcus aureus ATCC29213; read-out: Staphylococcus aureus MICs Activity
Summary of the method: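 Broth microdilution per NCCLS M7-A5 in Mueller Hinton broth, with compound in 1.6% DMSO and inoculum at OD 0.09 diluted 1:100. Plates incubated 16–20 h at 37°C. MIC is the lowest concentration with no visible growth; scored A ≤8, B 16–64, C >64 μg/ml.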

Bacillus subtilis 168CA = assay: Minimum Inhibitory Concentration (MIC) testing, broth microdilution, Bacillus subtilis; type: cell-based; details: Bacillus subtilis 168CA; read-out: Bacillus subtilis MICs Activity
Summary of the method: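 Broth microdilution followed NCCLS M7-A5, in rich broth such as Mueller Hinton, inoculum at OD 0.09 diluted 1:100, compounds in 1.6% DMSO before inoculum. After 16–20 h at 37 °C, MIC was the lowest concentration without visible growth. Score A: ≦8 μg/ml, B: 16–64 μg/ml, C: >64 μg/ml.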

MIC [1] [µg/mL] | MIC (Bacillus subtilis 168CA) [µg/mL] | SMILES
16 to 64 (≈ 52.8 to 211 µM) | < 8 | NC(=O)c1c(F)ccc(OCc2cc3ccccc3o2)c1F [Example 207, 3-(1-Benzofuran-2-ylmethoxy)-2,6-difluorobenzenecarboxamide]
> 64 | 16 to 64 (≈ 52.6 to 210 µM) | NC(=O)c1c(F)ccc(OCc2nc3ccccc3o2)c1F [Example 209, 3-(1,3-Benzoxazol-2-ylmethoxy)-2,6-difluorobenzenecarboxamide]
< 8 | < 8 | NC(=O)c1c(F)ccc(OCc2nc3cc(Cl)ccc3o2)c1F [Example 210, 3-[(5-Chloro-1,3-benzoxazol-2-yl)methoxy]-2,6-difluorobenzenecarboxamide]
16 to 64 (≈ 50.3 to 201 µM) | < 8 | Cc1ccc2nc(COc3ccc(F)c(C(N)=O)c3F)oc2c1 [Example 211, 2,6-Difluoro-3-[(6-methyl-1,3-benzoxazol-2-yl)methoxy]benzenecarboxamide]
16 to 64 (≈ 50.3 to 201 µM) | < 8 | Cc1ccc2oc(COc3ccc(F)c(C(N)=O)c3F)nc2c1 [Example 212, 2,6-Difluoro-3-[(5-methyl-1,3-benzoxazol-2-yl)methoxy]benzenecarboxamide]
16 to 64 (≈ 44.4 to 178 µM) | < 8 | CC(C)(C)c1ccc2oc(COc3ccc(F)c(C(N)=O)c3F)nc2c1 [Example 213, 3-[5-(tert-Butyl)-1,3-benzoxazol-2-yl]methoxy-2,6-difluorobenzenecarboxamide]
16 to 64 (≈ 45.8 to 183 µM) | 16 to 64 (≈ 45.8 to 183 µM) | NC(=O)c1c(F)ccc(OCc2nc3cc([N+](=O)[O-])ccc3o2)c1F [Example 214, 2,6-Difluoro-3-[(5-nitro-1,3-benzoxazol-2-yl)methoxy]benzenecarboxamide]
< 8 | < 8 | NC(=O)c1c(F)ccc(OCc2nc3cc(F)ccc3s2)c1F [Example 216, 2,6-Difluoro-3-[(5-fluoro-1,3-benzothiazol-2-yl)methoxy]benzenecarboxamide]
< 8 | < 8 | Cc1ccc2nc(COc3ccc(F)c(C(N)=O)c3F)sc2c1 [Example 229, 2,6-Difluoro-3-[(6-methyl-1,3-benzothiazol-2-yl)methoxy]benzenecarboxamide]
16 to 64 (≈ 44.3 to 177 µM) | < 8 | COc1cccc(-c2noc(COc3ccc(F)c(C(N)=O)c3F)n2)c1 [Example 256, 2,6-Difluoro-3-[3-(3-methoxyphenyl)-1,2,4-oxadiazol-5-yl]methoxybenzenecarboxamide]

Continued, compound first:

SMILES | MIC [1] [µg/mL] | MIC (Bacillus subtilis 168CA) [µg/mL]
NC(=O)c1c(F)ccc(OCc2csc3ccccc23)c1F [Example 202, 3-(1-Benzothiophen-3-ylmethoxy)-2,6-difluorobenzenecarboxamide] | 16 to 64 (≈ 50.1 to 200 µM) | < 8
NC(=O)c1c(F)ccc(OCC2COc3ccccc3O2)c1F (stereo not drawn) [Example 204, 3-(2,3-Dihydro-1,4-benzodioxin-2-ylmethoxy)-2,6-difluorobenzenecarboxamide] | 16 to 64 (≈ 49.8 to 199 µM) | 16 to 64 (≈ 49.8 to 199 µM)
Cc1ccc2sc(COc3ccc(F)c(C(N)=O)c3F)cc2c1 [Example 205, 2,6-Difluoro-3-[(5-methyl-1-benzothiophen-2-yl)methoxy]benzenecarboxamide] | < 8 | < 8
NC(=O)c1c(F)ccc(OCc2cc3ccccc3s2)c1F [Example 206, 3-(1-Benzothiophen-2-ylmethoxy)-2,6-difluorobenzenecarboxamide] | > 64 | < 8
NC(=O)c1cccc(OCc2nc3cc(Cl)ccc3s2)c1F [Example 219, 3-[(5-Chloro-1,3-benzothiazol-2-yl)methoxy]-2-fluorobenzenecarboxamide] | < 8 | < 8
NC(=O)c1c(Cl)ccc(OCc2nc3cc(Cl)ccc3s2)c1F [Example 220, 6-Chloro-3-[(5-chloro-1,3-benzothiazol-2-yl)methoxy]-2-fluorobenzenecarboxamide] | < 8 | < 8
NC(=O)c1c(F)ccc(OCc2nc3cc(Cl)ccc3s2)c1Cl [Example 221, 2-Chloro-3-[(5-chloro-1,3-benzothiazol-2-yl)methoxy]-6-fluorobenzenecarboxamide] | < 8 | < 8
NC(=O)c1c(F)ccc(OCc2nc3c(Cl)cccc3s2)c1F [Example 226, 3-[(4-Chloro-1,3-benzothiazol-2-yl)methoxy]-2,6-difluorobenzenecarboxamide] | 16 to 64 (≈ 45.1 to 180 µM) | 16 to 64 (≈ 45.1 to 180 µM)
NC(=O)c1c(F)ccc(OCc2csc(-c3ccccc3)n2)c1F [Example 233, 2,6-Difluoro-3-[(2-phenyl-1,3-thiazol-4-yl)methoxy]benzenecarboxamide] | < 8 | < 8
NC(=O)c1c(F)ccc(OCc2nc(-c3ccccc3)cs2)c1F [Example 235, 2,6-Difluoro-3-[(4-phenyl-1,3-thiazol-2-yl)methoxy]benzenecarboxamide] | < 8 | < 8
NC(=O)c1c(F)ccc(OCc2csc(Nc3ccccc3)n2)c1F [Example 237, 3-[(2-Anilino-1,3-thiazol-4-yl)methoxy]-2,6-difluorobenzenecarboxamide] | 16 to 64 (≈ 44.3 to 177 µM) | 16 to 64 (≈ 44.3 to 177 µM)
NC(=O)c1c(F)ccc(OCc2noc(-c3ccccc3)n2)c1F [Example 239, 2,6-Difluoro-3-[(5-phenyl-1,2,4-oxadiazol-3-yl)methoxy]benzenecarboxamide] | 16 to 64 (≈ 48.3 to 193 µM) | 16 to 64 (≈ 48.3 to 193 µM)
NC(=O)c1c(F)ccc(OCc2nc(-c3ccccc3)no2)c1F [Example 240, 2,6-Difluoro-3-[(3-phenyl-1,2,4-oxadiazol-5-yl)methoxy]benzenecarboxamide] | < 8 | < 8
NC(=O)c1c(F)ccc(OCc2nc(-c3ccc(C(F)(F)F)cc3)no2)c1F [Example 243, 2,6-Difluoro-3-(3-[4-(trifluoromethyl)phenyl]-1,2,4-oxadiazol-5-ylmethoxy)benzenecarboxamide] | < 8 | < 8
NC(=O)c1c(F)ccc(OCc2nc(-c3ccc(F)cc3)no2)c1F [Example 245, 2,6-Difluoro-3-[3-(4-fluorophenyl)-1,2,4-oxadiazol-5-yl]methoxybenzenecarboxamide] | < 8 | < 8
CC(C)c1ccc(-c2noc(COc3ccc(F)c(C(N)=O)c3F)n2)cc1 [Example 248, 2,6-Difluoro-3-[3-(4-isopropylphenyl)-1,2,4-oxadiazol-5-yl]methoxybenzenecarboxamide] | < 8 | < 8
CC(C)(C)c1ccc(-c2noc(COc3ccc(F)c(C(N)=O)c3F)n2)cc1 [Example 249, 3-(3-[4-(tert-Butyl)phenyl]-1,2,4-oxadiazol-5-ylmethoxy)-2,6-difluorobenzenecarboxamide] | < 8 | < 8
CCc1ccc(-c2noc(COc3ccc(F)c(C(N)=O)c3F)n2)cc1 [Example 250, 3-[3-(4-Ethylphenyl)-1,2,4-oxadiazol-5-yl]methoxy-2,6-difluorobenzenecarboxamide] | < 8 | < 8
Cl.NC(=O)c1c(F)ccc(OCc2nc(-c3ccc(N)cc3)no2)c1F [Example 251, 3-[3-(4-Aminophenyl)-1,2,4-oxadiazol-5-yl]methoxy-2,6-difluorobenzenecarboxamide hydrochloride salt] | 16 to 64 | 16 to 64
Cc1ccccc1-c1noc(COc2ccc(F)c(C(N)=O)c2F)n1 [Example 252, 2,6-Difluoro-3-[3-(2-methylphenyl)-1,2,4-oxadiazol-5-yl]methoxybenzenecarboxamide] | < 8 | < 8
